Assay results: US11141464B2, “GLP-1 polypeptide having GLP-1 receptor agonist activity and use thereof” (Liu Jianning, priority 2018, dated 2021)
Where no end group is shown, it is not given here.

Assays:
[1] = biological target: dipeptidyl peptidase IV (DPP-IV) (Homo sapiens, UniProt P27487); conditions: variants with the 8-position alanine replaced, compared with GLP-1 or its fragment; cited from earlier work
STZ rats = test: Efficacy study by subcutaneous administration in the experimental animal model of type 2 diabetes (STZ rats), blood glucose; type: in vivo, Male Wistar rats; conditions: for Blood glucose concentration at 0 hour (mM, mean ± sem): 0 hour (start of experiment, time of injection)
Description: 1) The Experimental Animal Model of Type 2 Diabetes Male Wistar rats of approximately 200 grams were fasted overnight with free access to water. The rats were administered a single dose of streptozotocin (STZ) by intraperitoneal injection (ip) in an amount of 45 mg/Kg. Then, the rats were normally fed and tested for fasting blood glucose. […] 2) Experimental Method Forty-eight rats were randomly divided into 6 groups, with each of 8 rats. […] At 0 hour, the STZ rats were injected subcutaneously with different doses of drugs for test. At 3, 6, and 9 hours, blood samples were taken from the vein of the rats' tail. The blood samples were tested to provide the blood glucose concentrations of the rats.

[2] = system: patients with type 2 diabetes; conditions: after 6 weeks of GLP-1 treatment; cited from earlier work

Sequence of dipeptidyl peptidase IV (DPP-IV) (P27487 whole entry, species assumed, the tested form may be a part): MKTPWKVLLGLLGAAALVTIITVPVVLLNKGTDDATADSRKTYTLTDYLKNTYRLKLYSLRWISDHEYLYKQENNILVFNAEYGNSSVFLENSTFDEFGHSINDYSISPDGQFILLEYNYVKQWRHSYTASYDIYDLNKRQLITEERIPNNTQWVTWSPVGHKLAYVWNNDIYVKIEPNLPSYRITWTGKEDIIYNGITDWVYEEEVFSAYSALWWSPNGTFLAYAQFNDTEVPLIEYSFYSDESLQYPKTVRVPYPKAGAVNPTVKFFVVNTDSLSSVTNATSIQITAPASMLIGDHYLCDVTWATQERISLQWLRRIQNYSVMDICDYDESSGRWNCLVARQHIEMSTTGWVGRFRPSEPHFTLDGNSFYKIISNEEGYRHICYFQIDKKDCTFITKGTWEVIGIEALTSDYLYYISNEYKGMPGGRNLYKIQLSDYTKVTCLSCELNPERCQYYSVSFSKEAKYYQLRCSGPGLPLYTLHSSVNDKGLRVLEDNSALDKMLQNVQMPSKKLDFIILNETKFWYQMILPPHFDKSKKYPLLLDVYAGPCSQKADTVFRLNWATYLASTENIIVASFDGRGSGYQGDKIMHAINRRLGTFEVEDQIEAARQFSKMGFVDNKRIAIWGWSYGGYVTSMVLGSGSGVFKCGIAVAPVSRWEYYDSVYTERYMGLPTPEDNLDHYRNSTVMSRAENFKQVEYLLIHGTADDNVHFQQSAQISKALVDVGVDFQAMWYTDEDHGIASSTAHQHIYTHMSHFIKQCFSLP

Substance: Gly^8-GLP-1 (HDEFERHGEGTFTSDVSSYLEGQAAKEFIAWLVKGRG; Glucagon-like peptide 1; UniProt P01275 92-128, looked up, variant A8G) [variant obtained by replacing the 8-position alanine of GLP-1 or a fragment thereof with glycine]
- resistance to DPP-IV mediated degradation [1]: increased resistance

Substance: His-Gly-Glu-Gly-Thr-Phe-Pro-Ser-Asp-Val-Ser-Ser-Tyr-Leu-Glu-Gly-Gln-Ala-Ala-Lys-Glu-Phe-Ile-Ala-Trp-Leu-Val-Lys-Gly-Arg-NH2 (HGEGTFPSDVSSYLEGQAAKEFIAWLVKGR-NH2) [Gly^8-Pro^13-GLP-1(7-36)NH2, GLP-1 polypeptide with T13P mutation]
- Blood glucose concentration at 0 hour (mM, mean ± sem) (STZ rats; 1 μg/kg subcutaneous): 27.4 ± 0.8 mM
- Blood glucose concentration at 3 hour (mM, mean ± sem) (STZ rats; 1 μg/kg subcutaneous): 23.4 ± 1.1 mM
- Blood glucose concentration at 6 hour (mM, mean ± sem) (STZ rats; 1 μg/kg subcutaneous): 19.5 ± 0.5 mM
- Blood glucose concentration at 9 hour (mM, mean ± sem) (STZ rats; 1 μg/kg subcutaneous): 16.3 ± 0.7 mM
- Blood glucose concentration at 0 hour (mM, mean ± sem) (STZ rats; 10 μg/kg subcutaneous): 24.0 ± 1.1 mM
- Blood glucose concentration at 3 hour (mM, mean ± sem) (STZ rats; 10 μg/kg subcutaneous): 18.5 ± 0.9 mM
- Blood glucose concentration at 6 hour (mM, mean ± sem) (STZ rats; 10 μg/kg subcutaneous): 14.5 ± 0.8 mM
- Blood glucose concentration at 9 hour (mM, mean ± sem) (STZ rats; 10 μg/kg subcutaneous): 10.5 ± 0.6 mM
- blood-glucose lowering effect compared with reference drugs (STZ rats; subcutaneous, comparison from the data of Table 1 (vs Liraglutide P<0.01)): significantly better than that of Liraglutide

Substance: Ser^8-GLP-1 (HDEFERHSEGTFTSDVSSYLEGQAAKEFIAWLVKGRG; Glucagon-like peptide 1; UniProt P01275 92-128, looked up, variant A8S) [variant obtained by replacing the 8-position alanine of GLP-1 or a fragment thereof with serine]
- resistance to DPP-IV mediated degradation [1]: increased resistance

Substance: Thr^8-GLP-1 (HDEFERHTEGTFTSDVSSYLEGQAAKEFIAWLVKGRG; Glucagon-like peptide 1; UniProt P01275 92-128, looked up, variant A8T) [variant obtained by replacing the 8-position alanine of GLP-1 or a fragment thereof with threonine]
- resistance to DPP-IV mediated degradation [1]: increased resistance

Substance: ^1HDEFERHAEGTFTSDVSSYLEGQAAKEFIAWLVKGRG [GLP-1, Glucagon-like peptide-1, a polypeptide containing 37 amino acids]
- average weight loss [2]: 1.9 kg
